Assay results published in US20070020684A1, “Structure of a glucocorticoid receptor ligand binding domain comprising an expanded binding pocket and methods employing same” (priority 2002, published 2007).

T1: PR (Homo sapiens, UniProt P06401)
T1 sequence (P06401 1-933): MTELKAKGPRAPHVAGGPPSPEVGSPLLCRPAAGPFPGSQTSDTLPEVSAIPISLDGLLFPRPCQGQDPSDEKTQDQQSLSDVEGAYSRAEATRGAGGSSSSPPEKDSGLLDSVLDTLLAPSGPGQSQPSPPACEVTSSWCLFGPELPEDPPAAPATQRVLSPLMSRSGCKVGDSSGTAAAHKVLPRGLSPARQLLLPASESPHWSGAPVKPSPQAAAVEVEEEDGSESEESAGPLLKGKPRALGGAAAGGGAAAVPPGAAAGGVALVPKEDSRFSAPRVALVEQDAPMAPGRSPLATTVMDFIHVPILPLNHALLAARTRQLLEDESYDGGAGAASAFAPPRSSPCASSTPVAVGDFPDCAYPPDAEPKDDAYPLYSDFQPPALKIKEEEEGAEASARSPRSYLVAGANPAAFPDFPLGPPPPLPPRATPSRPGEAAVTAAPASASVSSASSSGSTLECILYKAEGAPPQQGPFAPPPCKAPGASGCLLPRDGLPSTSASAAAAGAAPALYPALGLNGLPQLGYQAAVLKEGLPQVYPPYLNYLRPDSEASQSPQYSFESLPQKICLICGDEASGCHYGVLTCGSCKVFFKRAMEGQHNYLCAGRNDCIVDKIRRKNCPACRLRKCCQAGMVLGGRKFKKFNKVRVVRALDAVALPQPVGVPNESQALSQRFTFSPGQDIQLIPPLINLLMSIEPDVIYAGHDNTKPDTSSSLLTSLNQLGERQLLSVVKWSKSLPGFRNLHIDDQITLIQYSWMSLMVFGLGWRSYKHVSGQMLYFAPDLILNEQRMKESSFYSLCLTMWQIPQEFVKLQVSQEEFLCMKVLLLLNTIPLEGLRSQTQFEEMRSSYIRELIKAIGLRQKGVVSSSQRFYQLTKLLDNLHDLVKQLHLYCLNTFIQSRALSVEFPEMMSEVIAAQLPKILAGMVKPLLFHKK

T2: GR LBD (521-777) F602S polypeptide (human glucocorticoid receptor alpha ligand binding domain) (human, UniProt P04150 521-777)
T2 construct: Expressed in E. coli from plasmid 6xHisGS-TGR(521-777) F602S pET24; The fusion tag was cut off with thrombin before complex formation and crystallization; Residue numbers in the text follow full-length human GR; In the crystal, two LBD monomers form a symmetric dimer; also called GRα LBD; GR LBD F602S
T2 sequence: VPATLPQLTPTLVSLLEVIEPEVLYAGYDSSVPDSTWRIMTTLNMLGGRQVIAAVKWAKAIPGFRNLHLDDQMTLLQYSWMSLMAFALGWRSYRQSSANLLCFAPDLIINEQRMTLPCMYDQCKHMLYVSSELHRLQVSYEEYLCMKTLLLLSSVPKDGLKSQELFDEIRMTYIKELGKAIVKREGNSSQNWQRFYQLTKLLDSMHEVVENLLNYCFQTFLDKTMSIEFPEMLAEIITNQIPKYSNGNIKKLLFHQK


How the values were obtained:
[1] = molecular target: T1, PR; settings: known, potent, non-steroidal agonist; cited from earlier work
[2] = molecular target: T2, GR LBD (521-777) F602S polypeptide …; experiment: X-ray co-crystal structure, 2.6 Å

binding result [2] | Molecule | binding affinity for PR (in words) [1]
– | CC1CCC(c2ccc(Cl)c(C(F)(F)F)c2)=NN1S(=O)(=O)c1ccc(I)cc1 (centres unmarked) [RWJ-60130, 3-(4-chloro-3-trifluoromethylphenyl)-1-(4iodobenzensulfonyl)-6-methyl-1,4,5,6-tetrahydropyridazine] | high-affinity
binds | KENALLRYLLDKDD [TIF2 peptide (residues 740-753 of the human TIF2 protein), KENALLRYLLDKDD] | –
